{"source": "paper PMC12198407", "about": "“Preclinical and first-in-human of purinostat mesylate, a novel selective HDAC I/IIb inhibitor, in relapsed/refractory multiple myeloma and lymphoma” (Signal Transduction and Targeted Therapy, 2025)", "key": {"[1]": {"assay": "Chronic toxicity test, 4 weeks", "assay_type": "in vivo, rats", "protocol": "In this study, the low, medium, and high dose groups were set at 3, 10, and 30 mg/kg, respectively. The blank formulation was set at low and high doses of 45 and 450 mg/kg, corresponding to the doses of hydroxypropyl beta-cyclodextrin in the low and high dose groups of injectable Purinostat Mesylate. Dosing occurred once every two days, three times a week, for a total of four weeks, with some animals undergoing a four-week recovery period after the treatment ended. The main results indicated no mortality. In the high-dose group, symptoms included sparse fur, reduced activity, and scabbing at the injection site. […] The primary toxic target organs or systems included the immune system (spleen, thymus, various lymph nodes), submandibular gland, bone marrow, testis, and epididymis."}, "[2]": {"assay": "Body weight of MM1S xenograft, DEL and r/r DLBCL PDX mice", "assay_type": "in vivo", "conditions": "treatment groups of the mouse models", "procedure": "Mice received subcutaneous inoculation with 0.5 × 10^7 MM1S or RPMI-8226 cells, to establish xenograft models. […] When tumors reached 150–250 mm^3, mice were treated with various compounds. PM and panobinostat were administered intravenously three times a week at 5 mg/kg in combination therapy. […] Tumor volume (tumor volume (mm^3) = π/6 × length × width^2) and body weights were measured every two days.\nMice were weighed every two days. All data are represented as mean ± SEM."}, "[3]": {"assay": "Metabolite profiling in plasma, bile, urine, feces", "assay_type": "in vivo, SD rats", "conditions": "for share of plasma AUC0-96h: [14C] 3 mg/100 µCi/kg i.v.; for amount in bile, % of administered dose: 0 to 72 hours; for amount in feces, % of administered dose / amount in urine, % of administered dose: 0 to 168 hours", "protocol": "Following a single intravenous administration of [14C] Purinostat Mesylate at a dose of 3 mg/100 µCi/kg in male and female rats, a total of 14 metabolites were identified, in addition to the parent compound. These were designated as M382, M396, M474, M475, M490, M516, M517, M532, M546, M548, M558, M666, M708a, and M708b. Among these, M382 is an acetylated product of the parent drug after N-dealkylation, M396 is a carboxylic acid derivative of M382, M474 is a reduction product of the parent drug, M475 is a hydroxylated product derived from the amino conversion of M474, M490 is a mono-oxidation product of M474, M516 is an acetylated product of M474, M517 is a hydroxylated product derived from the amino conversion of M516, M532 is an acetylated product of the parent drug, M546 is a methylated product of M532, M548 is a dioxidation product of M516, M558 is a glucuronic acid conjugate of M382, M666 is a glucuronic acid conjugate of the parent drug, M708a is a mono-oxidation glucuronic acid conjugate of M516, and M708b is a glucuronic acid conjugate of M532."}, "HDAC3": {"target": "HDAC3 (Homo sapiens, UniProt O15379)", "sequence (O15379 whole entry)": "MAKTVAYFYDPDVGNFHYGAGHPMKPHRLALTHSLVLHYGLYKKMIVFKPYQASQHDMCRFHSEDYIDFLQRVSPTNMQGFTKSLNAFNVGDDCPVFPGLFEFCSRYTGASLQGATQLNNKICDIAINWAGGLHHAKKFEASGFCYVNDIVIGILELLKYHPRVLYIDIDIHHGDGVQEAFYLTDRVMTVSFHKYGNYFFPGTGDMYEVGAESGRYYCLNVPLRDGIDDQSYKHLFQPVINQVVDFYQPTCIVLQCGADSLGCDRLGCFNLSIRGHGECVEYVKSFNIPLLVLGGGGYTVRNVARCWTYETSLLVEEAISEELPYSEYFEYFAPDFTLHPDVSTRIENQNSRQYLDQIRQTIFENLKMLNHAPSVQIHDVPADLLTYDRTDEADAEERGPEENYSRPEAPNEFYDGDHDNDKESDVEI", "sequence (Q9Y618 395-489 partner limits assumed)": "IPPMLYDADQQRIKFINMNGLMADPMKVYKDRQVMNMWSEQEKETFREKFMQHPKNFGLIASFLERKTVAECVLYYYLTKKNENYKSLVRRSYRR", "assay": "HDAC enzyme activity in vitro", "assay_type": "biochemical"}, "CYP1A2": {"system": "CYP1A2", "assay": "CYP induction, cryopreserved human liver cells", "assay_type": "in vitro ADME", "conditions": "0.0500, 0.500, 5.00 µM; three donors"}, "HDAC9": {"target": "HDAC9 (Homo sapiens, UniProt Q9UKV0)", "sequence (Q9UKV0 whole entry)": "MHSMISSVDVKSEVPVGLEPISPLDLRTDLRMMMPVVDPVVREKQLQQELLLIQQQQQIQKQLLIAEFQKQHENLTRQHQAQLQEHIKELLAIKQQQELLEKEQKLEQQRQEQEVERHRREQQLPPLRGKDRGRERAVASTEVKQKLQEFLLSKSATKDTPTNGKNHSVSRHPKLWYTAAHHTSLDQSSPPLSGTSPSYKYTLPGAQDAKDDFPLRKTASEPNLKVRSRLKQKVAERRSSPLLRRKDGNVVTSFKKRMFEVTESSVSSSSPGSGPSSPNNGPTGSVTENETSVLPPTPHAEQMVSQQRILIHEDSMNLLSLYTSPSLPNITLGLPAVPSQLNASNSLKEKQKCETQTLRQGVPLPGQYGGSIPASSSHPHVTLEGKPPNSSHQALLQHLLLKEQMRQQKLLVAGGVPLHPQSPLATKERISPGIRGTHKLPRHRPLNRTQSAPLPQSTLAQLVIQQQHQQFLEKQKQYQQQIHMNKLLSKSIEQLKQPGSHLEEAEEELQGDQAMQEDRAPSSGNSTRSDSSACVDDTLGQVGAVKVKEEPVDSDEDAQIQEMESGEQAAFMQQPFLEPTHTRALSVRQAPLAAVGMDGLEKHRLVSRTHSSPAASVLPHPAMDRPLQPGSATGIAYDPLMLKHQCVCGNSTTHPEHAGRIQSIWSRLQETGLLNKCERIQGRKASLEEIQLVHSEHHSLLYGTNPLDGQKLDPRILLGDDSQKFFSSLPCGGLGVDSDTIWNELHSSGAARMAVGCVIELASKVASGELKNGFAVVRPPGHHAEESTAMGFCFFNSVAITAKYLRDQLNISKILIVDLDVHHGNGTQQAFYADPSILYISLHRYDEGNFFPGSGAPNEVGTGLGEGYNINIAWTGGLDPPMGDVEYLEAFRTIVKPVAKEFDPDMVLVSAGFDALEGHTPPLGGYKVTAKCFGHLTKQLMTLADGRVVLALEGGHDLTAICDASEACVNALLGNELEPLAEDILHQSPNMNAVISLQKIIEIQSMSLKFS", "assay": "HDAC enzyme activity in vitro", "assay_type": "biochemical"}, "[4]": {"system": "primary MM cells from relapsed patients A and B", "assay": "Cell apoptosis analysis, primary cells", "assay_type": "cell-based, human", "conditions": "5 nM, 48 h", "protocol": "(§1) CD138^+, CD38^+, or CD20^+ primary cells were obtained from plasma cell leukemia patients and DLBCL patients who had relapsed after multiple drug therapies. These patient samples were sourced from West China Hospital and had been approved by the clinical ethics committee of West China Hospital of Sichuan University (Chengdu, China). The clinical information of these patients was summarized in Supplementary Table 2. The patient primary cells were cultured in 6-well plates at a density of 1×10^6 cells/mL, and treated with control, PM, panobinostat, Pom and DXM at indicated concentrations for 48 hours. CD138, CD38, and CD20 monoclonal antibodies, Annexin V-APC and 7AAD apoptosis detection kits were used following the manufacturer’s instructions. The apoptosis cells were analyzed by flow cytometry (Thermo, AttuneTMNxT)."}, "[5]": {"system": "diffuse large B-cell lymphoma (DLBCL) cells from patient C", "assay": "Cell apoptosis analysis, primary cells", "assay_type": "cell-based, human", "conditions": "5 nM, 48 h", "protocol": "as §1"}, "[6]": {"assay": "Metabolic stability in liver microsomes", "assay_type": "in vitro ADME", "conditions": "for half-life at 1 µM: NADPH, 37°C; for CLint scaled at 1 µM: read-out: liver intrinsic clearance (CLint)", "protocol": "The metabolic stability of Purinostat Mesylate was evaluated in CD-1 mice, SD rats, Beagle dogs, crab-eating monkeys, and human liver microsomes. Under conditions of 37°C, 1 µM of Purinostat Mesylate was incubated with liver microsomes from the five species mentioned above, supplemented with a NADPH regeneration system, for varying durations up to 60 minutes. The concentration of Purinostat Mesylate in the resulting samples was analyzed using LC/MS/MS."}, "[7]": {"system": "human double-hit lymphoma SUDHL-6", "assay": "SUDHL-6 subcutaneous tumor model", "assay_type": "in vivo, NOD/SCID mice", "conditions": "for median survival time: satellite group"}, "HUVEC": {"system": "HUVEC", "assay": "Proliferation, MTT or Alamar Blue", "assay_type": "cell-based", "conditions": "Homo sapiens, read-out: IC50, normal HUVEC cells"}, "CHL cells": {"system": "CHL cells", "assay": "In vitro chromosomal aberration test", "assay_type": "cell-based", "conditions": "30–1000 µg/mL 4 h ±S9; 3.75–30 µg/mL 24 h", "protocol": "This experiment employed two methods: one without the S9 metabolic activation system and one with the S9 metabolic activation system. The method without the S9 metabolic activation system utilized two exposure times of 4 hours and 24 hours, while the method with the S9 metabolic activation system used a 4-hour exposure time. The test was conducted using a 2% dosing volume ratio. Under the 4-hour exposure conditions, the final concentrations of Purinostat Mesylate were set at 30, 100, 300, and 1000 µg/mL; under the 24-hour exposure conditions, the final concentrations were set at 3.75, 7.5, 15, and 30 µg/mL. Additionally, a solvent control group (DMSO) and a positive control group (administering the appropriate positive agent) were included. After the culture period for each concentration group, cells were collected and prepared for microscopy. After Giemsa staining, 1000 cells were observed under a microscope to record the number of cells in the metaphase stage and calculate the mitotic index inhibition rate for each group. For chromosome aberration assessment, 200 metaphase cells were observed, and the chromosome aberration rate was calculated for each group."}, "human liver cells": {"system": "human liver cells", "assay": "Cytotoxicity on donor liver cells", "assay_type": "cell-based"}}, "note": "Like-named read-outs stand apart in the source and are kept apart here.", "data": [{"smiles": "CN(Cc1nc2c(N3CCOCC3)nc(-c3ccc(N)cc3)nc2n1C)c1ncc(C(=O)NO)cn1.CS(=O)(=O)O", "note": "[PM, 2-(((2-(4-Aminophenyl)-9-methyl-6-(4-morpholinyl)-9H-purine-8-yl)methyl)methylamino)-N-hydroxy-5-pyrimidine-carboxamide Mesylate]", "values": [{"measurement": "mortality", "setting": "[1]; 3, 10, 30 mg/kg", "result": "no mortality"}, {"measurement": "highest no serious toxicity dose (HNSTD)", "setting": "[1]; three times a week, four weeks", "result": 30, "unit": "mg/kg"}, {"measurement": "body weight / side effects", "setting": "[2]", "result": "no weight loss or other evident side effects"}, {"measurement": "share of plasma AUC0-96h", "setting": "[3]; female rats", "result": 11.15, "unit": "%"}, {"measurement": "amount in bile, % of administered dose", "setting": "[3]; females", "result": 2.45, "unit": "%"}, {"measurement": "amount in feces, % of administered dose", "setting": "[3]; females", "result": 0.84, "unit": "%"}, {"measurement": "amount in urine, % of administered dose", "setting": "[3]; females", "result": 0.35, "unit": "%"}, {"measurement": "share of plasma AUC0-96h", "setting": "[3]; male rats", "result": 8.79, "unit": "%"}, {"measurement": "amount in bile, % of administered dose", "setting": "[3]; males", "result": 2.47, "unit": "%"}, {"measurement": "amount in feces, % of administered dose", "setting": "[3]; males", "result": 0.94, "unit": "%"}, {"measurement": "amount in urine, % of administered dose", "setting": "[3]; males", "result": 0.66, "unit": "%"}, {"measurement": "IC50", "setting": "HDAC3", "result": 0.0017, "unit": "µM"}, {"measurement": "induction of CYP1A2", "setting": "CYP1A2", "result": "did not act as an inducer"}, {"measurement": "IC50", "setting": "HDAC9", "result": 0.622, "unit": "µM"}, {"measurement": "apoptosis", "setting": "[4]; patient A", "result": 92.9, "unit": "%"}, {"measurement": "apoptosis", "setting": "[4]; patient B", "result": 82.0, "unit": "%"}, {"measurement": "apoptosis", "setting": "[5]", "result": 82.1, "unit": "%"}, {"measurement": "half-life at 1 µM", "setting": "[6]; Beagle, dog", "result": 1.63, "unit": "h"}, {"measurement": "CLint scaled at 1 µM", "setting": "[6]; Beagle, dog", "result": 1.22, "unit": "L/h/kg"}, {"measurement": "half-life at 1 µM", "setting": "[6]; CD-1, mouse", "result": "> 3.1", "unit": "h"}, {"measurement": "CLint scaled at 1 µM", "setting": "[6]; CD-1, mouse", "result": "< 1.78", "unit": "L/h/kg"}, {"measurement": "half-life at 1 µM", "setting": "[6]; SD, rat", "result": "> 3.1", "unit": "h"}, {"measurement": "CLint scaled at 1 µM", "setting": "[6]; SD, rat", "result": "< 0.81", "unit": "L/h/kg"}, {"measurement": "half-life at 1 µM", "setting": "[6]; human", "result": "> 3.1", "unit": "h"}, {"measurement": "CLint scaled at 1 µM", "setting": "[6]; human", "result": "< 0.408", "unit": "L/h/kg"}, {"measurement": "half-life at 1 µM", "setting": "[6]; monkey", "result": 0.0517, "unit": "h"}, {"measurement": "CLint scaled at 1 µM", "setting": "[6]; monkey", "result": 35.9, "unit": "L/h/kg"}, {"measurement": "T/C", "setting": "[7]; 2.5 mg/kg", "result": "47.88±9.41", "unit": "%"}, {"measurement": "tumor inhibition rate", "setting": "[7]; 2.5 mg/kg i.v. three times a week, mean of two batches", "result": "58.99±2.32", "unit": "%"}, {"measurement": "T/C", "setting": "[7]; 5 mg/kg", "result": "34.37±3.79", "unit": "%"}, {"measurement": "tumor inhibition rate", "setting": "[7]; 5 mg/kg", "result": "69.35±3.47", "unit": "%"}, {"measurement": "T/C", "setting": "[7]; 10 mg/kg", "result": "29.62±1.77", "unit": "%"}, {"measurement": "tumor inhibition rate", "setting": "[7]; 10 mg/kg", "result": "75.81±8.28", "unit": "%"}, {"measurement": "T/C", "setting": "[7]; 20 mg/kg", "result": "21.28±6.72", "unit": "%"}, {"measurement": "tumor inhibition rate", "setting": "[7]; 20 mg/kg", "result": "81.40±5.38", "unit": "%"}, {"measurement": "median survival time", "setting": "[7]; 10 mg/kg, death = tumor 3000 mm³", "result": 30, "unit": "days"}, {"measurement": "median survival time", "setting": "[7]; 20 mg/kg", "result": 30, "unit": "days"}, {"measurement": "IC50", "setting": "HUVEC", "result": 0.0689, "unit": "µM"}, {"measurement": "chromosomal aberration test result", "setting": "CHL cells", "result": "negative"}, {"measurement": "cytotoxicity on donor liver cells", "setting": "human liver cells", "result": "exhibited cytotoxic effects on donor liver cells at concentrations up to 5.00 μM"}]}]}
